Measured values reported in patent US7923465B2, “Cannabinoid receptor ligands, pharmaceutical compositions containing them, and process for their preparation” (priority 2005, dated 2011).

Assays:
hCB1 = hCB1 (Homo sapiens, UniProt P21554); assay: In vitro binding assay using hCB1-CHO membranes, [3H]-CP-55,940 displacement (Protocol II); parameters: expressed in transfected cells; host or cells: CHO (hCB1-CHO, generated in-house)
Method: II. Protocol for In Vitro Assay Using hCB1-CHO Membranes
The reaction was set up in a total volume of 200 μl in PEI (Poly(ethyleneimine)) (0.2%) precoated Millipore GFB (Glass Fibre-B) filter plates. 1 mM stocks of test compounds were prepared in DMSO and tested at a final concentration of 300 nM. The non-specific binding was determined by 0.5 μM CP-55, 940. […] The assay mixture (with or without the test compound) was incubated at 37° C. for 1 hour. The reaction was stopped by rapid filtration under vacuum and the radioactivity on the filters was measured by liquid scintillation counting.

hCB2 = hCB2 (Homo sapiens, UniProt P34972); assay: In vitro binding assay using hCB2-CHO membranes, [3H]-CP-55,940 displacement (Protocol IV); parameters: expressed in transfected cells; host or cells: CHO (hCB2-CHO, generated in-house); conditions: hCB2-CHO membranes, [3H]-CP-55,940 displacement; for inhibition at 0.3 µM: 1 h, read-out: % Displacement Protocol IV
Outline: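 Compounds were tested at a single 300 nM final concentration for displacing 0.75 nM [3H]-CP-55,940 from hCB2-CHO membranes (1 h, 30 °C, 50 mM Tris pH 7.4, 5 mM MgCl2, 1 mM EDTA, 0.1% BSA). Filter-bound radioactivity was counted, with 0.5 μM unlabelled CP-55,940 for nonspecific binding; results are % displacement.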

CB1 [1] = target: T1, CB1 (Rattus norvegicus, UniProt P20272); assay: GTPγS binding assay, CB1 functional assay in rat cerebellar membrane (Protocol VIII); assay type: biochemical; parameters: 10 μg rat cerebellum membrane; from tissue; host or cells: rat cerebellum membrane, prepared in-house; conditions: for activation at 1 µM: 1 h, GTPγS binding over basal, rat cerebellar membrane, tested at 1 uM, read-out: Per Se % Stimulation; for inhibition at 1 µM: GTPγS binding, tested at 1 uM in presence of 1 μM WIN 55,212-2, read-out: % Inhibition of WIN-55212-2 induced stimulation
Method: VIII. Protocol for GTPγS Binding Assay (CB1 Functional Assay in Rat Cerebellar Membrane)
In this GTPγS binding assay, total, basal and nonspecific binding were determined. See Griffin G., Atkinson P. J., Showalter V. M., Martin B. R. and Abood M. E., “Evaluation of cannabinoid receptor agonists and antagonists using the Guanosine-5′-O-(3-(^35S)thio)-triphosphate binding assay in rat cerebellar membranes,” J Pharmacol Exp Ther 285: 553-560, 1998. Three wells for total binding, three wells for basal binding, and three wells for nonspecific binding at 0.2 nM concentration of radioligand were used. Basal binding was defined by 50 μM GDP (Guanosine diphosphate) and non-specific binding was defined by 10 μM unlabeled GTPγS. 10 μg rat cerebellum membrane, 50 μM of GDP, WIN-55212-2 or test compound (1 μM or 300 nM), 10 μM unlabeled GTPγs, and 0.2 nM of [^35S]GTPγS were added into a 96 well plate and the final volume of the reaction mixture was made with GTPγS buffer (50 mM Tris, 3 mM anhydrous MgCl2, 0.2 mM EGTA and 100 mM NaCl pH 7.4) to 200 μl. The plates were incubated at 30° C. for 1 hour. Then the reaction was stopped by filtration using a Whatman GF/B-96 microfilter plate. Three washings were given using Tris-HCl. The radioactivity bound to the brain membrane was retained on the filter disks to which scintillation fluid was added (Microscint PS). Then plates were read for radioactive counts using a Beta Liquid Scintillation Counter (Packard Instruments, Ill., USA).
The rat cerebellar brain membrane was prepared as follow: • 1. Sacrifice the rat and take out the whole brain and separate cerebellum as fast as possible and keep it on ice. • 2. Take the weight of the cerebellum and homogenize in 30 ml of homogenizing buffer (50 mM Tris-HCL containing 1 mM EDTA and 5% sucrose, pH 7.5) using homogenizer in cold condition. • 3. Centrifuge the homogenized cerebellum at 18000 rpm (38000 g) for 15 min at 4° C. • 4. Resuspend the pellet in 5 ml 50 mM Tris-HCL containing 1 mM EDTA and keep it on ice for 30 min. • 5. Pass the membrane through insulin syringe to ensure uniform suspension. • 6. Centrifuge the membrane at 18000 rpm at 4° C. for 20 min. • 7. Reconstitute the pellet in 3 ml of GTPγS buffer and estimate the protein by BCA assay and store the membrane in aliquots of 1000 μg of protein. CB1 Agonist and Antagonist Activity Screening Assay
The test compounds were screened at a final concentration of 1 μM or 300 nM in the absence and presence of 1 μM of WIN 55, 212-2 in the same manner as described in the GTPγS binding assay.
An agonist will stimulate the GTPγS binding over the basal.
An inverse agonist will decrease the basal GTPγS binding and/or produce more than 100% inhibition of the agonist (WIN-55212-2) induced stimulation.
The percent stimulation of GTPγS binding by each test compound at 1 μM or 300 nM concentration in the absence and presence of 1 μM WIN 55, 212-2 was calculated by comparing it with basal specific bound (Basal binding—Non Specific binding) values.

CB1 [2] = target: T1, CB1; assay: Rat CB1 receptor binding using brain membrane, [3H]SR141716A displacement (Protocol I); parameters: CB1 receptor present in a rat brain membrane preparation; from tissue; host or cells: rat brain membrane; inhibition: dose or concentration left out as unconfirmed; conditions: 1 h; rat brain membrane, [3H]SR141716A displacement; read-out: % Displacement Protocol I

Sequence of hCB2 (P34972 whole entry): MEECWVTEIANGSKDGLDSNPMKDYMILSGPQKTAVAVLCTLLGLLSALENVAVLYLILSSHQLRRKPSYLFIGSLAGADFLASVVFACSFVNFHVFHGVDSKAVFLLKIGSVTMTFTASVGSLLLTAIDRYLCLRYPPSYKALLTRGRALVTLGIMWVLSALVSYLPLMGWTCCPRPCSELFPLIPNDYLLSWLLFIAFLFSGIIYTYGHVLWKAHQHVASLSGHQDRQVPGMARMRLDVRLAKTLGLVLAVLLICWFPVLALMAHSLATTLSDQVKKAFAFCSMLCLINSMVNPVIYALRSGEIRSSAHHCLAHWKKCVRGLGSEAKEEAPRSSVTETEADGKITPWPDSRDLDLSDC
Sequence of hCB1 (P21554 whole entry): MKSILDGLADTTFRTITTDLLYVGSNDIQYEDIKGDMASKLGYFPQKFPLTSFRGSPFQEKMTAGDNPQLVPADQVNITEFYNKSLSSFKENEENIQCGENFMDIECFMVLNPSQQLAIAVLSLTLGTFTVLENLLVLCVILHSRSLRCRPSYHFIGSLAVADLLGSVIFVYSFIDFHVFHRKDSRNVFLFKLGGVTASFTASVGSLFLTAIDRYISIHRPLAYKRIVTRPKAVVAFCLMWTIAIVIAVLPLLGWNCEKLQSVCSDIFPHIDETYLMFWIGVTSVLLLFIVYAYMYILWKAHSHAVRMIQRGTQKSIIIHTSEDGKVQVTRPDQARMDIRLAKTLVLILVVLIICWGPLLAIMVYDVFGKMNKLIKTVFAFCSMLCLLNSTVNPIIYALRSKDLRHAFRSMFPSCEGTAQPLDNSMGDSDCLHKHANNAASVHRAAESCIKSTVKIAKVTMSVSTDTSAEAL
T1 sequence (P20272 whole entry): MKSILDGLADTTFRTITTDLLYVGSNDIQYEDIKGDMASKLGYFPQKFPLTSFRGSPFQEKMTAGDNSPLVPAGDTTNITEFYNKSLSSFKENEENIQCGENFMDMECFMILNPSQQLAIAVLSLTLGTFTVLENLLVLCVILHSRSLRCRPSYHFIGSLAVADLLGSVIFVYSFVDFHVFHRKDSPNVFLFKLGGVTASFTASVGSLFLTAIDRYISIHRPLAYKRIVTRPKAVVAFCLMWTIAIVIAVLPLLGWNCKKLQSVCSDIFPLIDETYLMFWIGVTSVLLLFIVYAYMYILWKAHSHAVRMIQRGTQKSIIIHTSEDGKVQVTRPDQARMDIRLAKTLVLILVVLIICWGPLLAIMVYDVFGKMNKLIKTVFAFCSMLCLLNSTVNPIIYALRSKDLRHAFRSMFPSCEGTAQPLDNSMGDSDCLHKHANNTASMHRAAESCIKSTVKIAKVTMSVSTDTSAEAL

Compound | % Displacement Protocol II (hCB1) [%] | % Displacement Protocol IV (hCB2) [%] | further results
COC(=O)[C@H](NC(=O)c1nn(-c2ccc(F)cc2F)c2c1C1CC3CC(C1)CC2C3)c1ccccc1 [Example 154, Methyl(2R)-2-[7-(2,4-difluorophenyl)-6,7-diazatetracyclo[7.3.1.1^3,11.0^4,8]tetradeca-4(8),5-dien-5-ylcarboxamido]-2-phenylethanoate] | 96.1 | 70.19 | 
CCCCCn1nc(C(=O)NC(C)(C)c2ccccc2)c2c1C1CC3CC(CC2C3)C1 [Example 190b, N(7)-(1-Methyl-1-phenylethyl)-5-pentyl-5,6-diazatetracyclo[7.3.1.1^3,11.0^4,8]tetradeca-4(8)-6-diene-7-carboxamide] | 100 | 96.07 | 
C[C@H](NC(=O)c1nn(-c2ccc(F)cc2F)c2c1C1CC3CC(C1)CC2C3)c1ccccc1 [Example 146] | 60.51 | 68.16 | 
CC(C)(NC(=O)c1nn(-c2ccc(F)cc2F)c2c1C1CCC2(C)C1(C)C)c1ccccc1 (stereo not drawn) [Example 407] | 87.28 | 88.44 | 
CC1(C)C2CC[C@@](C)(C2)C1NC(=O)c1nn(-c2ccc(Cl)cc2)c2c1C1CC3CC(C1)CC2C3 (stereo partly drawn) [Example 110, N(7)-(1S,2endo-1,3,3-Trimethyl-bicyclo[2.2.1]hept-2-yl)-5-(4-chlorophenyl)-5,6-diazatetracyclo[7.3.1.1^3,11.0^4,8]tetradeca-4(8)-6-diene-7-carboxamide] | 37.69 | 60.7 | 
O=C(NN1CCOCC1)c1nn(-c2ccc(F)cc2F)c2c1C1CCC2C1 (stereo not drawn) [Example 312, 4-[5-(2,4-Difluorophenyl)-4,5-diazatricyclo[5.2.1.0^2,6]deca-2(6),3-dien-3-ylcarboxamido]morpholine] | 10.97 | 4.47 | 
O=C(Nc1cccc(Cl)c1)c1nn(-c2ccc(Cl)cc2)c2c1C1CCC2C1 (stereo not drawn) [Example 215, N(3)-(3-Chorophenyl)-1-(4-chlorophenyl)-4,5,6,7-tetrahydro-1H-4,7-methano-indazole-3-carboxamide] | 1.38 |  | 
O=C(NC12CC3CC(CC(C3)C1)C2)c1nn(-c2ccc(F)cc2F)c2c1C1CC3CC(C1)CC2C3 [Example 144, N(7)-(Adamantan-1-yl)-5-(2,4-difluorophenyl)-5,6-diazatetracyclo[7.3.1.1^3,11.0^4,8]tetradeca-4(8)-6-diene-7-carboxamide] | 40.13 | 69.24 | 
COC(=O)[C@@H](NC(=O)c1nn(-c2ccc(F)cc2F)c2c1C1CCC2C1)c1ccc(F)cc1 (stereo partly drawn) [Example 326, Methyl (2S)-2-[5-(2,4-difluorophenyl)-4,5-diazatricyclo[5.2.1.0.^2,6]deca-2(6),3-dien-3-ylcarboxamido]-2-(4-fluorophenyl)ethanoate] | 73.99 | 99.18 | 
CC1(C)[C@@H]2CC[C@@](C)(C2)[C@@H]1NC(=O)c1nn(-c2ccc(F)cc2F)c2c1C1CC3CC(C1)CC2C3 [Example 145, N(7)-(1S,2endo-1,3,3-Trimethyl-bicyclo[2.2.1]hept-2-yl)-5-(2,4-difluorophenyl)-5,6-diazatetracyclo[7.3.1.1^3,11.0^4,8]tetradeca-4(8)-6-diene-7-carboxamide] | 54.01 | 75.88 | 
O=C(NNc1ccccc1Cl)c1nn(-c2ccc(F)cc2F)c2c1C1CCC2C1 (stereo not drawn) [Example 286, N(3)-[(2-Chlorophenyl)amino]-1-(2,4-difluorophenyl)-4,5,6,7-tetrahydro-H-4,7-methano-indazole-3-carboxamide] | 32.35 |  | 
C[C@@H](NC(=O)c1nn(-c2ccc(Cl)cc2)c2c1C1CC3CC(C1)CC2C3)c1ccccc1 [Example 118] | 45.43 | 61.23 | 
O=C(NC12CC3CC(CC(C3)C1)C2)c1nn(-c2ccc(F)cc2)c2c1C1CC3CC(C1)CC2C3 [Example 158, N(7)-(Adamantan-1-yl)-5-(4-fluorophenyl)-5,6-diazatetracyclo[7.3.1.1^3,11.0^4,8]tetradeca-4(8)-6-diene-7-carboxamide] | 70.12 | 95.4 | 
COC(=O)[C@@H](NC(=O)c1nn(-c2ccc(F)cc2F)c2c1C1CC3CC(C1)CC2C3)c1ccccc1 [Example 155, Methyl(2S)-2-[7-(2,4-difluorophenyl)-6,7-diazatetracyclo[7.3.1.1^3,11.0^4,8]tetradeca-4(8),5-dien-5-ylcarboxamido]-2-phenylethanoate] | 96.65 | 72.38 | 
C[C@H](NC(=O)c1n[nH]c2c1C1(c3ccc(F)cc3F)CCC2C1)c1ccccc1 (stereo partly drawn) [Example 292, N(3)-[S-(1-Phenylethyl)]-4-(2,4-difluorophenyl)-4,5,6,7-tetrahydro-1H-4,7-methano-indazole-3-carboxamide] | 69.79 |  | 
O=C(NNc1ccccc1Cl)c1nn(-c2ccc(Cl)cc2)c2c1C1CC3CC(C1)CC2C3 [Example 123, N(7)-(2-Chlorophenylamino)-5-(4-chlorophenyl)-5,6-diazatetracyclo[7.3.1.1^3,11.0^4,8]tetradeca-4(8),6-diene-7-carboxamide] |  |  | activation at 1 µM (CB1 [1]): 13.5%; inhibition at 1 µM (CB1 [1]): 99.1%; inhibition (CB1 [2]): 89%; melting point: 155 °C; inhibition at 0.3 µM (hCB2): 47.6%
O=C(NNc1ccccc1Cl)c1nn(-c2ccc(Cl)cc2Cl)c2c1C1CC3CC(C1)CC2C3 [Example 174, N(7)-(2-Chlorophenylamino)-5-(2,4-dichlorophenyl)-5,6-diazatetracyclo[7.3.1.1^3,11.0^4,8]tetradeca-4(8),6-diene-7-carboxamide] |  |  | activation at 1 µM (CB1 [1]): -20.8%; inhibition at 1 µM (CB1 [1]): 75.5%; inhibition (CB1 [2]): 76.4%; melting point: 110 °C; inhibition at 0.3 µM (hCB2): 22.5%
O=C(NCc1ccc(F)cc1)c1nn(-c2ccc(Cl)cc2Cl)c2c1C1CCC2C1 (stereo not drawn) [Example 246, N(3)-(4-Fluorobenzyl)-1-(2,4-dichlorophenyl)-4,5,6,7-tetrahydro-1H-4,7-methano-indazole-3-carboxamide] |  |  | activation at 1 µM (CB1 [1]): 0.7%; inhibition at 1 µM (CB1 [1]): 98.9%; inhibition (CB1 [2]): 46%; melting point: 106 to 108 °C; inhibition at 0.3 µM (hCB2): 30.4%
